Assay results as given in patent publication US10006166B2, “Integrating the production of carboxylated cellulose nanofibrils and cellulose nanocrystals using recyclable organic acids” (The United States of America as Represented by the …, priority 2016, dated 2018).

Experimental: UV absorption spectrophotometric methods were employed for rapidly determining the soluble acid concentration in the solution. The UV-absorption spectra for oxalic, maleic, and toluenesulfonic acids are shown in FIGS. 3, 4, and 5, respectively.
The solubilities of oxalic, maleic, and toluenesulfonic acids at different temperatures were determined from UV absorption measurements in saturated solutions at different temperatures. The measured solubility data were fit to an exponential function as shown by Eq. (1). The maximum acid concentration that can be used at a given temperature can be determined from the exponential expression.
[formula] Where s0 and B are fitting constants and listed in TABLE 1 for the three acids studied while T is in degree Kelvin.

Fitting constant B for predicting solubility using Eq. (1): 2,461 | Fitting constant s0 for predicting solubility using Eq. (1): 3.14 × 10^5
Compound: O=C(O)/C=C\C(=O)O [Maleic acid]
